Laboratory results from patent US20100016307A1, “NOVEL COMPOUNDS” (priority 2006, published 2010).

Each compound was assayed against T1, c-Met/cFms chimeric receptor in c-Met/cFms/NIH3T3 cells (Homo sapiens, UniProt P08581) (assay: Cell-based assay for c-Met autophosphorylation (ELISA)). Conditions: compounds 1 h at 37° C., M-CSF (600 ng/ml) stimulation 10 min.
T1 construct: The transmembrane/cytoplasmic domain fragment of c-Met (nucleotides 933 to 1390); expressed in transfected cells; the other entry of the earlier key: CSF1R (P07333, Macrophage colony-stimulating factor 1 receptor)
T1 sequence (P08581 with tags, fused parts or gaps): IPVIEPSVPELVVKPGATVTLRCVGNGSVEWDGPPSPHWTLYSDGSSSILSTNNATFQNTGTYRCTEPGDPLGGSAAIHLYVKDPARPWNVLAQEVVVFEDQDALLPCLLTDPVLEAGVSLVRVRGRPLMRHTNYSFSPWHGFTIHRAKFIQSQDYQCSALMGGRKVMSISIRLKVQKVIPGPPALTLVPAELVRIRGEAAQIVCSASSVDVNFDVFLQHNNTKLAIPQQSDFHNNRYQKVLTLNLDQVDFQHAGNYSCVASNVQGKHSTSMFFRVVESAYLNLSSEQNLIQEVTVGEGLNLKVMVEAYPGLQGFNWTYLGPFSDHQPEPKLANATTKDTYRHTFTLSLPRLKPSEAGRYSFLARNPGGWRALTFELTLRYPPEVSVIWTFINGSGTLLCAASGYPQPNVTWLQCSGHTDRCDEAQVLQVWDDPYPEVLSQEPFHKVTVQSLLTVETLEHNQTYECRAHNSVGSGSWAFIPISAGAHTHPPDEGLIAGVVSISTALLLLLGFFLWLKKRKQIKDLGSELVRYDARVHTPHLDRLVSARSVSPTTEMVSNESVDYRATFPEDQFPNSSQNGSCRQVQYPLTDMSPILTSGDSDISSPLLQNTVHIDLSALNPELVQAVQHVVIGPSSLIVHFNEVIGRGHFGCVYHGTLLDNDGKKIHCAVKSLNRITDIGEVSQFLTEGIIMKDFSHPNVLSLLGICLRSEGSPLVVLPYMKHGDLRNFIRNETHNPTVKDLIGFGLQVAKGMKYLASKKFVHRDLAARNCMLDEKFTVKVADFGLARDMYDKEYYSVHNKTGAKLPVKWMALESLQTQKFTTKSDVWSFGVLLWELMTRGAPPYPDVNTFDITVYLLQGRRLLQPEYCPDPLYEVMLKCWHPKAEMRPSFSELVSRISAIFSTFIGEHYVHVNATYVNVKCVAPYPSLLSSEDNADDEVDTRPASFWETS
From the text: To generate a chimeric cDNA clone of c-Met with cFms, the extracellular domain of colony stimulating factor 1 receptor (CSF1R encoded by cFms gene) was fused with the transmembrane and cytoplasmic domain of c-Met. Reverse-transcribed RNA from human placenta was used as template to clone c-Met. The transmembrane/cytoplasmic domain fragment of c-Met (nucleotides 933 to 1390) containing a NotI site at both 5′- and 3′-end was generated by polymerase chain reaction (PCR) using following two oligonucleotides;
The resulting c-Met cDNA was cloned into pCR2.1-TOPO vector (c-Met/pCR2.1-TOPO). The extracellular domain fragment of cFms (nucleotides 1 to 512) containing BamHI site at 5′-end and NotI site at 3′-end was generated from human placenta cDNA by PCR using two oligonucleotides;
The resulting cFms cDNA was cloned into pcDNA3.1 vector (Invitrogen) using the BamHI and NotI sites (cFms/pcDNA3.1). To generate complete chimeric construct, the c-Met fragment (transmembrane and cytoplasmic domain) was digested with NotI sites (in c-Met/pCR2.1-TOPO vector) and then subcloned into cFms/pcDNA3.1 vector by NotI site (c-Met/cFms/pcDNA3.1).
NIH3T3 cells were grown in DMEM supplemented with 10% fetal bovine serum. NIH3T3 cells were transfected with c-Met/cFms/pcDNA3.1 vector alone using the calcium phosphate method according to the manufacturer's instructions. Three days after transfection, cells were selected with G418 (0.4 mgml^−1) for 14 days and the expression of c-Met chimeric receptor in the G418-resistant colonies of NIH3T3 (c-Met/cFms/NIH3T3) cells was analyzed by immunoblot. Autophosphorylation of c-Met induced by the stimulation with M-SCF, the ligand for CSF1R, was analyzed by immunoprecipitation and immunoblot, and prominent stable transfectant was selected for c-Met autophosphorylation assay. […]
c-Met/cFms/NIH3T3 cells were plated at 1×10^5 cells/well in collagen-coated 96-well microtitre plates and grown 24 h under standard culture conditions, followed by serum starvation for 1 h. The cells were incubated with compounds for 1 h at 37° C. and followed by M-CSF (600 ngml^−1) stimulation for 10 min at 37° C. The media was removed and the cells were lysed with 120 ul/well of lysis buffer (20 mM Tris-HCl pH8.0, 137 mM NaCl, 2 mM EDTA, 10% glycerol, 1% Triton X-100, 1 mM Na3VO4 and Protease Inhibitor Cocktail (Complete mini EDTA-free, Roche)). Then 100 ul/well of lysate was transferred to the antibody-coated (50 ng/well goat anti-cFms antibody in PBS) ELISA plate and incubated overnight at 4° C. Plates were washed five times with PBST (PBS containing 0.05% Tween-20). Primary antibody (biotin-conjugated anti-phosphotyrosine monoclonal antibody, PIERCE) was diluted 1:10,000 in PBST containing 1% BSA, added (100 ul/well) and incubated for 2 h at room temperature. After washing the plates five times with washing buffer, 100 ul/well of HRP-conjugated streptavidin (PIERCE) in PBST containing 1% BSA was added and incubated for 30 min at room temperature. After washing five times with PBST, 100 ul/well of SuperSignal ELISA Femto Substrate (PIERCE) was added and incubated for almost 1 min at room temperature. Chemiluminescence was measured using Wallac 1420 multilabel counter.
The IC50 was determined by using XLfit software (IDBS) with four-parameters, sigmoidal dose-response equation.

SMILES	IC50 [µM]
O=C(NCCN1CCNCC1)c1cc2c(Oc3ccc(NC(=O)C4(C(=O)Nc5ccc(F)cc5)CC4)cc3)ccnc2[nH]1 [Example 3, N^1-(4-Fluorophenyl)-N^1-(4-{[2-({[2-(1-piperazinyl)ethyl]amino}carbonyl)-1H-pyrrolo[2,3-b]pyridin-4-yl]oxy}phenyl)-1,1-cyclopropane dicarboxamide]	1 to 3.16
O=C(NCCc1c[nH]cn1)c1cc2c(Nc3ccc(NC(=O)C4(C(=O)Nc5ccc(F)cc5)CC4)cc3)ccnc2[nH]1 [Example 20, N^1-(4-Fluorophenyl)-N^1-(4-{[2-({[2-(1H-imidazol-4-yl)ethyl]amino}carbonyl)-1H-pyrrolo[2,3-b]pyridin-4-yl]amino}phenyl)-1,1-cyclopropane dicarboxamide]	3.16 to 31.6
O=C(Nc1ccc(F)cc1)C1(C(=O)Nc2ccc(Nc3ccnc4[nH]c(-c5ccccc5)cc34)cc2)CC1 [Example 22, N^1-(4-Fluorophenyl)-N^1-{4-[(2-phenyl-1H-pyrrolo[2,3-b]pyridin-4-yl)amino]phenyl}-1,1-cyclopropanedicarboxamide]	3.16 to 31.6
O=C(NCCN1CCOCC1)c1cc2c(Nc3ccc(NC(=O)C4(C(=O)Nc5ccc(F)cc5)CC4)cc3)ccnc2[nH]1 [Example 19, N^1-(4-Fluorophenyl)-N^1-(4-{[2-({[2-(4-morpholinyl)ethyl]amino}carbonyl)-1H-pyrrolo[2,3-b]pyridin-4-yl]amino}phenyl)-1,1-cyclopropane dicarboxamide]	1 to 3.16

The remaining lines, values ahead:

IC50 [µM]	SMILES
1 to 3.16	CCOC(=O)c1cc2c(Nc3ccc(NC(=O)C4(C(=O)Nc5ccc(F)cc5)CC4)cc3)ccnc2[nH]1 [Example 17, Ethyl 4-[(4-{[(1-{[(4-fluorophenyl)amino]carbonyl}cyclopropyl)carbonyl]amino}phenyl)amino]-1H-pyrrolo[2,3-b]pyridine-2-carboxylate]
3.16 to 31.6	CS(=O)(=O)CCNC(=O)c1cc2c(Nc3ccc(NC(=O)C4(C(=O)Nc5ccc(F)cc5)CC4)cc3)ccnc2[nH]1 [Example 21, N^1-(4-Fluorophenyl)-N^1-(4-{[2-({[2-(methylsulfonyl)ethyl]amino}carbonyl)-1H-pyrrolo[2,3-b]pyridin-4-yl]amino}phenyl)-1,1-cyclopropane dicarboxamide]
1 to 3.16	CN(C)c1ccc(CNC(=O)c2cc3c(Oc4ccc(NC(=O)C5(C(=O)Nc6ccc(F)cc6)CC5)cc4)ccnc3[nH]2)cc1 [Example 11, N^1-[4-({2-[({[4-(Dimethylamino)phenyl]methyl}amino)carbonyl]-1H-pyrrolo[2,3-b]pyridin-4-yl}oxy)phenyl]-N^1-(4-fluorophenyl)-1,1-cyclopropane dicarboxamide]
3.16 to 31.6	COc1ccccc1NC(=O)c1cc2c(Oc3ccc(NC(=O)C4(C(=O)Nc5ccc(F)cc5)CC4)cc3)ccnc2[nH]1 [Example 13, N^1-(4-Fluorophenyl)-N^1-(4-{[2-({[2-(methyloxy)phenyl]amino}carbonyl)-1H-pyrrolo[2,3-b]pyridin-4-yl]oxy}phenyl)-1,1-cyclopropane dicarboxamide]
1 to 3.16	COc1ccccc1CNC(=O)c1cc2c(Oc3ccc(NC(=O)C4(C(=O)Nc5ccc(F)cc5)CC4)cc3)ccnc2[nH]1 [Example 12, N^1-(4-Fluorophenyl)-N^1-[4-({2-[({[2-(methyloxy)phenyl]methyl}amino)carbonyl]-1H-pyrrolo[2,3-b]pyridin-4-yl}oxy)phenyl]-1,1-cyclopropane dicarboxamide]

The compounds below were run against T2, human Met Kinase (His6-GST fusion, aa 956-1390) (Homo sapiens, UniProt P08581) (assay: In vitro screen: kinase assay of purified Met kinase). Conditions: purified Met 1 nM, 10 μM ATP, 1 μM peptide substrate, 1 hour at room temperature; read-out: pIC50 values at the c-Met receptor (in vitro screen results) (converted).
T2 construct: His6 (N); GST (Glutathione-S-Transferase) (N); made in house; host or cells: baculovirus expression system in Sf9 cells
T2 sequence (P08581 956-1390): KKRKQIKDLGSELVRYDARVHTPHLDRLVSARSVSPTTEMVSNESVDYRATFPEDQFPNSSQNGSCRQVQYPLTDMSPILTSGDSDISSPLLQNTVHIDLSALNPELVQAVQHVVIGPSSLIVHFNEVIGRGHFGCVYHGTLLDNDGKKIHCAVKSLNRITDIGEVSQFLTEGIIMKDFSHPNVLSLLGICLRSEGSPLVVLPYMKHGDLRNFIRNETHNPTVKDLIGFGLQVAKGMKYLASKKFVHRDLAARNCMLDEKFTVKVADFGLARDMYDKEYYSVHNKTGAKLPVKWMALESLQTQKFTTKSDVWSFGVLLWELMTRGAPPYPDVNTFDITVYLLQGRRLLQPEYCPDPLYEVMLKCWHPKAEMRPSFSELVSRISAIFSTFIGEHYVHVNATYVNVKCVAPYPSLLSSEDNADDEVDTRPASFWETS
Type: biochemical
Method: The peptide substrate, Biotin-aminohexyl-EEEEYFELVAKKKK-amide was purchased from SynPep Solid sample is dissolved at approximately 2.5 mM in water (concentration determined by amino acid analysis) and aliquots stored at −20° C.
Met Kinase: A fusion protein consisting of His6-tagged Glutathione-S-Transferase (GST) and amino acid residues 956-1390 of human Met Kinase (aa 956-1390 of Entrez Protein Accession # EAL24359.1 (met proto-oncogene (hepatocyte growth factor receptor) [Homo sapiens])) from “www.ncbi.nlm.nih.gov/entrez/”) is purified from baculovirus expression system in Sf9 cells using Ni chelate column, GSH column, followed by size exclusion chromatography. Purity greater than 90%, estimated by SDS-PAGE, is achieved. Samples in 25 mM HEPES pH 7.5, 100 mM NaCl, 0.1 mM EDTA are stored at −80° C. until use.
Assays are performed in 96 well (Costar, Catalog No. 3789) or 384 well plates (Costar, Catalog No. 3705). Assay conditions for the peptide phosphorylation reaction (in 10, 20, 25, or 40 μl volume) mix are 100 mM Hepes buffer, pH 7.4; 0.1 mgml^−1 BSA; 5 mM MgCl2; 1 mM DTT; 10 μM ATP; purified Met (1 nM final); and 1 μM peptide substrate. Compounds, titrated in DMSO, are evaluated at concentrations ranging from 50 μM to 0.2 nM. […] Reactions are incubated for 1 hour at room temperature and are stopped by addition of detection reagents containing, at final detection volume, 12.5 mM EDTA; 100 mM Hepes; 0.1 mg/ml BSA; 8 nM Streptavidin APC (Perkin Elmer catalog #CR130-150); 1 nM Europium-labelled anti-phosphotyrosine antibody (Perkin Elmer catalog #AD0067). Under the assay conditions defined above, the Km (apparent) for ATP is determined to be 40 μM.
The data for compound dose responses were plotted as % Inhibition, calculated with the data reduction formula 100*(1−[(U1−C2)/(C1−C2)]), versus concentration of compound, where U is the unknown value, C1 is the average control value obtained for DMSO, and C2 is the average control value obtained for 0.05M EDTA. Data were fitted to the curve described by: y=((Vmax*x)/(K+x)) where Vmax is the upper asymptote and K is the IC50. The results for each compound were recorded as pIC50 calculated as follows: pIC50=−Log 10(K).

SMILES	IC50 [nM]
CN(C)CCCNC(=O)c1cc2c(Oc3ccc(NC(=O)C4(C(=O)Nc5ccc(F)cc5)CC4)cc3)ccnc2[nH]1 [Example 5, N^1-(4-{[2-({[3-(Dimethylamino)propyl]amino}carbonyl)-1H-pyrrolo[2,3-b]pyridin-4-yl]oxy}phenyl)-N^1-(4-fluorophenyl)-1,1-cyclopropane dicarboxamide]	< 10
NC(=O)CNC(=O)c1cc2c(Oc3ccc(NC(=O)C4(C(=O)Nc5ccc(F)cc5)CC4)cc3)ccnc2[nH]1 [Example 8, N^1-{4-[(2-{[(2-Amino-2-oxoethyl)amino]carbonyl}-1H-pyrrolo[2,3-b]pyridin-4-yl)oxy]phenyl}-N^1-(4-fluorophenyl)-1,1-cyclopropanedicarboxamide]	< 10
O=C(NCCN1CCOCC1)c1cc2c(Oc3ccc(NC(=O)C4(C(=O)Nc5ccc(F)cc5)CC4)cc3)ccnc2[nH]1 [Example 4, N^1-(4-Fluorophenyl)-N^1-(4-{[2-({[2-(4-morpholinyl)ethyl]amino}carbonyl)-1H-pyrrolo[2,3-b]pyridin-4-yl]oxy}phenyl)-1,1-cyclopropane dicarboxamide]	< 10
O=C(Nc1ccc(F)cc1)C1(C(=O)Nc2ccc(Nc3ccnc4[nH]ccc34)cc2)CC1 [Example 15, N^1-(4-Fluorophenyl)-N^1-[4-(1H-pyrrolo[2,3-b]pyridin-4-ylamino)phenyl]-1,1-cyclopropanedicarboxamide]	100 to 1000

More lines, now with the values ahead:

IC50 [nM]	SMILES
< 10	O=C(NCCO)c1cc2c(Oc3ccc(NC(=O)C4(C(=O)Nc5ccc(F)cc5)CC4)cc3)ccnc2[nH]1 [Example 7, N^1-(4-Fluorophenyl)-N^1-{4-[(2-{[(2-hydroxyethyl)amino]carbonyl}-1H-pyrrolo[2,3-b]pyridin-4-yl)oxy]phenyl}-1,1-cyclopropanedicarboxamide]
< 10	CS(=O)(=O)CCNC(=O)c1cc2c(Oc3ccc(NC(=O)C4(C(=O)Nc5ccc(F)cc5)CC4)cc3)ccnc2[nH]1 [Example 1, N^1-(4-Fluorophenyl)-N^1-(4-{[2-({[2-(methylsulfonyl)ethyl]amino}carbonyl)-1H-pyrrolo[2,3-b]pyridin-4-yl]oxy}phenyl)-1,1-cyclopropane dicarboxamide]
< 10	O=C(NCCc1c[nH]cn1)c1cc2c(Oc3ccc(NC(=O)C4(C(=O)Nc5ccc(F)cc5)CC4)cc3)ccnc2[nH]1 [Example 9]
